“Also recorded” adds a separate entry of the source.
How the values were obtained:
[1] = tested on: mouse cervical hemisection model; experiment: vertical screen test, C5 hemisection, ICV delivery; format: in vivo, C57BL6/NHsd mouse; settings: n = 5–10
Procedure: (§1) The mouse was placed on the brink of a horizontal wire screen (25 × 22 cm, diameter of wires 2 mm spaced at 1 cm) faced to edge. Immediately after that the screen was turned vertically to place the mouse to the upside down position at the lower edge. The time that the animal needed to climb to the upper edge was measured during 1 min. If the animal was not able to climb up or fell down from the screen the maximum time 60 s was marked as the climbing time. The average parameter of three subsequent trials repeated with at least 1 min interval was used for data analysis.

[2] = tested on: PTPσ ectodomain binding to aggrecan; experiment: solid phase binding of wild-type PTPσ ectodomain to aggrecan, competition by LMWP
Text: The N-terminal extracellular part of PTPσ (protein tyrosine phosphatase sigma; PTPRS) that contains the three Ig domains (amino acids 1-321) and mediates CSPG binding ([Shen et al., 2009]) was cloned using the PTPσ cDNA kindly provided by Dr. John Flanagan (Harvard University). The PTPσ mutant lacking the CS binding site in the Ig1 domain was produced as described ([Shen et al., 2009]). The recombinants were produced as Fc-tagged proteins in 293T HEK cells and purified on protein A Sepharose.
The competition assay for LMWP in binding of PTPσ to aggrecan was done in a similar way as earlier ([Paveliev et al., 2016]). Briefly, after overnight coating with 10 μg/ml aggrecan (150 ul/well) at 4°C 96-well tissue culture plates (Nunc) were washed two times with 0.05% Tween-20 in PBS and were blocked for 1 h at room temperature with 1%BSA and 0.05% Tween-20 in PBS. The recombinant wild type PTPσ ectodomain or the mutated ectodomain lacking CS binding (80 nM) were mixed with different concentrations of LMWP in 1% BSA and 0.05% Tween-20 in PBS, and were incubated in the plates overnight at 4°C. After washing with 0.05% Tween20 (3 times, room temperature), the wells were incubated for 1 h (room temperature) with HRP conjugated goat anti-human FC part of IgG (1:5000, in 1% BSA and 0.05% Tween20 PBS) to detect the bound PTPσ. […]

[3] = tested on: mouse cervical hemicontusion model; experiment: cylinder test, C5 hemicontusion, ICV delivery; format: in vivo, C57BL6/NHsd mouse; settings: ICV LMWP; weeks 4, 6 and 8; n = 6–11
Procedure: The mouse was placed into the glass cylinder of 13 cm in diameter and 15 cm high. A mirror was positioned at the angle behind the cylinder for better observation. The mouse was videotaped for the first 20 exploratory vertical rearings or for 5 min. The number of rearings in which the mouse used the right (impaired), the left or both limbs for support against the wall was measured. Paw preference was calculated as the ratio of total number of left limb use (left + both) to total number of right (impaired) limb use (right + both). A trial with less than 5 rearings within 5 min was excluded from the analysis.

[4] = tested on: mouse cervical hemicontusion model; experiment: vertical screen test, C5 hemicontusion, ICV delivery; format: in vivo, C57BL6/NHsd mouse; settings: n = 6–11
Procedure: as §1

hippocampal neurons = experiment: neurite outgrowth on aggrecan substrate, hippocampal neurons; format: cell-based, Wistar rat; settings: 10 μg/ml, n = 3
Procedure: (§2) The cortex or hippocampus were obtained from 17 days-old Wistar rat embryos and transferred to ice-cold preparation solution. Neurons were further isolated exactly as described earlier in Sahu’s publication ([Sahu et al., 2019]). Primary rat cortical or hippocampal neurons (E17 Wistar rats) were cultured in 96-well plates at the density of 20000 cells/well in Neurobasal medium supplemented with B27 serum substitute, penicillin, streptomycin and L-glutamate for 2 days in vitro (DIV). The plates were precoated with aggrecan (5 ug/ml, 150 µl/well). Protamine or protamine peptides were added to the culture medium at different concentrations. To analyze the effect of protamine or its fragment on neurite outgrowth, the plates were coated with 10 μg/ml of protamine or LMWP. For the experiment with chondroitinase, the aggrecan-coated plates were treated with chondroitinase ABC (Amsbio AMS. E1028, lot CF0029) for 4 h followed by 2 times washing with PBS before cell plating, and the cell culture imaging was carried out after 3 DIV incubation with 4 uM LMWP added to the medium. Neurite outgrowth was imaged with phase contrast microscopy (Olympus IX70 microscope and Retiga 2000R digital camera) using both x10 and x20 objectives. Processes of neurons over the diameter of the neuronal soma were interpreted as neurites. Neurite length was measured with ImageJ software and averaged from 2 to 3 independent experiments with 1–2 technical replicas in each independent experiment.

[5] = tested on: mouse cervical hemicontusion model; experiment: vertical screen (climbing) test, C5 hemicontusion, subcutaneous delivery; format: in vivo, C57BL6/NHsd mouse; settings: 16 µg s.c. daily 49 days; n = 7–13
Procedure: (§3) The effectiveness of systemically delivered LMWP in treatment of spinal cord trauma was tested in the cervical hemicontusion model (Figure 1B). Baseline behavior was assessed 1 week before the trauma surgery, and the results were used for balanced distribution of animals to the 3 experimental groups (“sham”, “trauma + PBS” and “trauma + LMWP”). Each housing cage contained animals from all three groups. Subcutaneous injections to the back area were started on the next day after the trauma and continued daily for 49 days. LMWP was injected subcutaneously at the 16 µg dose in 200 µl of sterile PBS. The groups “sham” and “trauma + PBS” got the same volume of PBS. Behavioral assessment was started 2 weeks after the trauma and finished at the week 12.
as §1

cortical neurons = experiment: neurite outgrowth on aggrecan substrate, cortical neurons; format: cell-based, Wistar rat
Procedure: as §2, with “Processes of neurons over the diameter of the neuronal soma were interpreted as neurites.” left out

[6] = tested on: mouse cervical hemicontusion model; experiment: locomotor activity in open field, C5 hemicontusion, subcutaneous delivery; format: in vivo, C57BL6/NHsd mouse; settings: 15 min open field, 16 µg s.c. daily 49 days; n = 7–13
Procedure: as §3
To evaluate the locomotor activity the animals were released to the corner of a transparent plexiglas chamber (30 cm × 30 cm, MedAssiociates, St.Albans,VT; illumination about 100lx) for 15 min. The travelled distance and the time spent in vertical activity (exploratory rearings) were analyzed with the Activity Monitor v5.1 software (Med Associates, St. Albans, VT).

VSRRRRRRGGRRRR [LMWP, low-molecular weight protamine]
climbing time in vertical screen, time course ([1]; ICV LMWP 4 µl of 1 mg/ml daily, 6 days from day 3, weeks 2-9): progressively reduced the climbing time | climbing time difference versus PBS-treated group ([1]; ICV LMWP, week 9, p = 0.0304, Kruskal-Wallis with Dunn's): reached a statistically significant level at the week 9 after the trauma | inhibition of PTPσ binding to aggrecan ([2]; 80 nM PTPσ-Fc, 10 μg/ml aggrecan coating, increasing LMWP, overnight 4°C, HRP anti-Fc/OPD 492 nm, n = 3, Figure 5C): progressively decreased by increasing LMWP concentrations; also recorded: clearly inhibited PTPσ binding to aggrecan in a similar manner as HB-GAM | similarity of LMWP to mutated PTPσ in binding suppression ([2]; aggrecan substrate, increasing LMWP concentrations): mimicked the binding suppression effect seen with the mutated PTPσ | ipsilateral front paw use versus sham [3]: reduction in front paw use asymmetry starting from the week 4 after the trauma; also recorded: not significantly different from the sham group on the weeks 4, 6 and 8 after the trauma | vertical climbing test, time course ([4]; ICV LMWP 4 µl of 1 mg/ml daily, 6 days from day 3): progressive improvement in the vertical climbing test; also recorded: progressively improve the climbing function in the vertical screen test starting from the week 3 after the trauma induction | climbing time versus sham after second post-trauma week ([4]; ICV LMWP, week 3 p = 0.1508, week 4 p = 0.1311, week 5 p = 0.6967, PBS group differed from sham until week 5): did not reveal a significant difference after the second post-trauma week | reversal of the inhibitory effect of aggrecan on neurite outgrowth (comparison among fragments) (hippocampal neurons; hippocampal neurons (E17 rat), 2 days on aggrecan, precoated with aggrecan or soluble in medium, about 70 neurons/replicate, normalized to control, Figure 2L): more effective in reversing the inhibitory effect of aggrecan than the 22 amino acid fragment or the full-length protamine | length of the longest neurite, versus uncoated control (hippocampal neurons; precoated with aggrecan, 2 days, 10 neurons per condition per experiment, Supplementary Figure S1B,E): slightly reduces the length of the longest neurite | increase in number of branches (hippocampal neurons; precoated with aggrecan, 2 days, 10 neurons per condition per experiment, Supplementary Figure S1C,F): 3 fold | total neurite length (hippocampal neurons; precoated with aggrecan, 2 days, Figure 2 and Supplementary Figure S1A,D): increase in the total neurite length | climbing test recovery versus PBS [5]: tendency for better recovery in the LMWP group compared to the PBS group | stimulation of neurite outgrowth versus 0 μg/ml (cortical neurons; LMWP in medium at 1.75 µM (3.3 μg/ml), p = 0.0319, n = 6, Figure 5A): ~6 times | stimulation of neurite outgrowth versus 0 μg/ml (cortical neurons; LMWP in medium at 3.5 µM (6.6 μg/ml), p < 0.0001, n = 6, Figure 5A): more than 20 times | general locomotor activity [6]: did not affect general locomotor activity

From article PMC9084902, “Low-Molecular Weight Protamine Overcomes Chondroitin Sulfate Inhibition of Neural Regeneration” (Frontiers in Cell and Developmental Biology, 2022)
